Here are results for 33 compounds from patent publication US5385922A, “Thiazolidine derivatives” (Cedona Pharmaceuticals B.V., priority 1990, dated 1995).

Structures can show the parent of a compound that is named as a salt. Where two headings read alike, the source gives them in different places.

The subject of one assay is contracted rat aorta. Nature of the assay: In vitro rat aorta assay: relaxation of aorta strips contracted with phenylephrine. The class given is cell-based. As to conditions: read-out: EC50 (mean): concentration at which residual contraction is 50% of maximum. As to the method: Strips of thoracial rat aortae (without aortic arch, helically cut; length 1-1.5 cm; width about 2 mm) were place in an organ bath [20 ml; Krebs Ringer medium bubbled with O2 /CO2 (95/5%) at 37° C.]. A resting tension of 0.5 g was applied and the preparations were equilibrated during 100 min (fresh buffer solution every 20 min). The strips were isotonically contracted with 10^-7 M phenylephrine.
Drug-induced relaxation was tested at increasing concentration (half log steps), till maximal or full relaxation (corresponding to basal precontraction value of organ length) had been reached.
Responses were calculated as change in organ length relatively to maximal displacement by contraction, EC50 values corresponding to the drug concentration at which residual contraction is 50% of maximum.

In the next assay the test system is arterial blood pressure. Kind of assay: Anesthetized rabbit experiments: arterial blood pressure and heart rate after infusion. Note: key: Inactive: No decrease or decrease less than 5%; Active: Decrease between 5 and 40%; Very Active: Decrease greater than 40%. The class given is in vivo, New Zealand white rabbits. On the procedure:
In the anesthetized rabbits, the decrease of arterial blood pressure and the effect on the heart rate after infusion of the test compounds was determined.
New Zealand white rabbits (2.5-3 kg) were anesthetized (30 mg×kg^-1 pentobarbitone, i.v., supplemental doses as needed). Tracheotomy was performed, and an intra-tracheal cannula was inserted. No artificial ventilation was applied and body temperature was maintained at 37°-38° C.
Left ventricular pressure (LVP) was measured (Millar Mikro-Tip catheter via the right carotid artery with transducer in the left ventricle). The LVP signal was differentiated electronically to obtain the rate of change of LVP (LV dP/dt). The heart rate (HR) was derived from the LVP pulse signal. The jugular vein was cannulated for infusion of the test compounds. Aortic blood pressure (SAP and DAP) was monitored (Gould-Statham pressure transducer) by inserting a polyethylene catheter filled with heparin (50 IU×ml^-1) through the femoral artery into the abdominal aorta. Heparin (150 IU×kg^-1, i.v.) was administered to prevent blood clotting.
After completion of surgical procedures, the rabbits were allowed to recover for 15 minutes before drug administration was started.
Drugs were infused at constant rate (0.5 ml×min^-1) for 10 minutes at various doses, resulting in a typical dose range of 2.0, 20.0 and 200 μg×kg^-1 ×min^-1 (2.5 kg rabbit).
Due to poor solubility, 1 mg×ml^-1 solutions of all the compounds tested were prepared in Intralipid® 10%, containing 10% (v/v) dimethyl sulfoxide (DMSO). […] At the infusion of lower doses, the 1 mg×ml^-1 stock solutions were diluted with Intralipid® 10%.
The presented data are based on the effects obtained at the end of the 10 min infusion period at the highest dose tested (150-200 μg×kg^-1 ×min^-1). The indicated ratings are referring to the effects (decrease, defined as percentage of basal value before infusion of the drug) on arterial blood pressure as follows: […]

[1] abbreviates: rat aorta strips contracted with 10^-7 M phenylephrine.
The mark [2] stands for this setting: anesthetized rabbit, end of 10 min infusion at highest dose tested (150-200 μg×kg^-1×min^-1), decrease as percentage of basal value.

Regarding “2-Butyl-5,5-dimethyl-N-(4-methylbenzenesulphonyl)-4-[(5-nitroxyisosorbide)carbonyl]thiazolidine [Example IV]”, in the assay with contracted rat aorta (setting [1]), the EC50 was found to be 9500 nM.
The same measure, in the same setting: with “4-Carboxy-2-[3-4-(2-nitroxyethoxy)phenyl]thiazolidine [Example XXXV]” the figure was 54 nM.
`O=C(O)C1CSC(c2ccccc2OC[C@H]2CC[C@H](CO[N+](=O)[O-])CC2)N1` (relative stereo) [Example XXIX, 4-Carboxy-2-(2-{[4-nitroxymethyl-(trans)-cyclohexyl]methoxy}phenyl)thiazolidine]: the EC50 in the assay on contracted rat aorta (setting [1]) came out at 21 nM. Also, in the assay with arterial blood pressure (setting [2]), the “Activity with regard to the lowering of blood pressure” value (from here on “Activity with regard to the lowering”) was “Active”.
For the compound `CCCCC1SCC(C(=O)OC2COC3C(O[N+](=O)[O-])COC23)N1S(=O)(=O)c1ccc(C)cc1` (centres unmarked) [Example I, 2-Butyl-N-(4-methylbenzenesulphonyl)-4-[(5-nitroxyisosorbide)carbonyl]thiazolidine], the EC50 in the assay with contracted rat aorta (setting [1]) turned out to be 750 nM.
On the same count and under the same terms, then `CCCCC1SCC(C(=O)OC2COC3C(O[N+](=O)[O-])COC23)N1C(=O)c1ccccc1` (centres unmarked) [Example II, N-benzoyl-4-[(5-nitroxyisosorbide)carbonyl]-2-butylthiazolidine], with 740 nM.
Same read-out and setting: with `O=C(COc1ccccc1C1NC(C(=O)O)CS1)NCCO[N+](=O)[O-]` (centres unmarked) [Example IX, 4-Carboxy-2-{2-[(2-nitroxyethyl)aminocarbonylmethoxyl]phenyl}thiazolidine] the figure was 700 nM; with `O=C(NCCO[N+](=O)[O-])c1ccc(C2NC(C(=O)O)CS2)cc1` (centres unmarked) [Example V, 4-Carboxy-2-{4-[(2-nitroxyethyl)aminocarbonyl]phenyl}thiazolidine], 330 nM; with `CC(=O)N1C(C(=O)NCCO[N+](=O)[O-])CSC1c1ccccc1C(=O)O` (centres unmarked) [Example VI, N-acetyl-2-(2-carboxyphenyl)-4-[(2-nitroxyethyl)aminocarbonyl]thiazolidine], 1620 nM.
Still for that read-out and setting: then `CCOC(=O)C1CSC(c2ccc(C(=O)NCCO[N+](=O)[O-])cc2)N1` (centres unmarked) [Example VII, 4-Ethoxycarbonyl-2-{4-[(2-nitroxyethyl)aminocarbonyl]phenyl}thiazolidine×HCl], with 20 nM; and `CC(=O)N1C(C(=O)NCCO[N+](=O)[O-])CSC1c1ccccc1` (centres unmarked) [Example VIII, N-acetyl-2-phenyl-4-[(2-nitroxyethyl)aminocarbonyl]thiazolidine], with 1880 nM.
For the compound `COc1cc(C2NC(C(=O)O)CS2)ccc1OCC(=O)NCCO[N+](=O)[O-]` (centres unmarked) [Example X, 4-Carboxy-2{3-methoxy-4-[(2-nitroxyethyl)aminocarbonylmethoxy]phenyl}thiazolidine], in the assay with contracted rat aorta (setting [1]), the EC50 was determined as 390 nM.
Consider `CCOC(=O)C1CSC(c2ccc(OCC(=O)NCCO[N+](=O)[O-])c(OC)c2)N1` (centres unmarked) [Example XI, 4-Ethoxycarbonyl-2-{[3-methoxy-4-(2-nitroxyethyl)aminocarbonylmethoxy]phenyl}-thiazolidine hydrochloride], for which the EC50 in the assay with contracted rat aorta (setting [1]) is 270 nM.
Still for that read-out and setting: with `CCOc1cccc(C2NC(C(=O)O)CS2)c1OCCO[N+](=O)[O-]` (centres unmarked) [Example XII, 4-Carboxy-2-[3-ethoxy-2-(2-nitroxyethoxy)phenyl]thiazolidine] the figure was 650 nM.
For the compound `O=C(O)C1CSC(c2ccc(OCCO[N+](=O)[O-])cc2)N1` (centres unmarked) [Example XIII, 4-Carboxy-2-[4-(2-nitroxyethoxy)phenyl]thiazolidine], in the assay with contracted rat aorta (setting [1]), the EC50 was found to be 22 nM. The “Activity with regard to the lowering” value in the assay with arterial blood pressure (setting [2]) was “Active”.
On to `COc1cccc(C2NC(C(=O)O)CS2)c1OCCO[N+](=O)[O-]` (centres unmarked) [Example XIV, 4-Carboxyl-2-[3-methoxy-2-(2-nitroxyethoxy)phenyl]thiazolidine], for which the EC50 in the assay on contracted rat aorta (setting [1]) came out at 230 nM.
On to `COc1ccc(OCCO[N+](=O)[O-])c(C2NC(C(=O)O)CS2)c1` (centres unmarked) [Example XV, 4-Carboxy-2-[5-methoxy-2-(2-nitroxyethoxy)phenyl]thiazolidine], for which, in the assay on contracted rat aorta (setting [1]), the EC50 is 7 nM. Further, the “Activity with regard to the lowering” value in the assay on arterial blood pressure (setting [2]) is listed as “Active”.
As for `O=C(O)C1CSC(c2ccccc2OCCO[N+](=O)[O-])N1` (centres unmarked) [Example XVI, 4-Carboxy-2-[2-(2-nitroxyethoxy)phenyl]thiazolidine], the “Activity with regard to the lowering” value with arterial blood pressure (setting [2]) is listed as “Active”.
As to `CC(=O)N1C(C(=O)O)CSC1c1ccccc1OCCO[N+](=O)[O-]` (centres unmarked) [Example XVII, N-acetyl-4-carboxy-2-[2-(2-nitroxyethoxy)phenyl]thiazolidine], the EC50 in the assay on contracted rat aorta (setting [1]) worked out at 720 nM.
`O=C(O)C1CSC(c2cccc(OCCO[N+](=O)[O-])c2)N1` (centres unmarked) [Example XVIII, 4-Carboxy-2-[3-(2-nitroxyethoxy)phenyl]thiazolidine]: in the assay with contracted rat aorta (setting [1]), the EC50 was 47 nM.
On to `O=C(O)C1CSC(c2cc([N+](=O)[O-])ccc2OCCO[N+](=O)[O-])N1` (centres unmarked) [Example XXI, 4-Carboxy-2-[5-nitro-2-(2-nitroxyethoxy)phenyl]thiazolidine], for which, in the assay with contracted rat aorta (Rattus norvegicus), the EC50 was found to be 25 nM. The “Activity with regard to the lowering” value in the assay with arterial blood pressure (rabbit, in vivo) is “Active”.
For `CC(=O)N1C(CCc2ccccc2)SCC1C(=O)OC[C@H]1CC[C@H](CO[N+](=O)[O-])CC1` (some centres unmarked) [Example XXII, N-acetyl-2-(2-phenylethyl)-4-[(4-nitroxymethylcyclohexyl)methoxycarbonyl]thiazolidine], the EC50 with contracted rat aorta (setting [1]) is 23 nM. Further, the “Activity with regard to the lowering” value in the assay on arterial blood pressure (setting [2]) is listed as “Active”.
`O=C(COc1ccc(C2NC(C(=O)O)CS2)cc1)NCCO[N+](=O)[O-]` (centres unmarked) [Example XXIV, 4-Carboxy-2-{4-[(2-nitroxyethyl)aminocarbonylmethoxy]phenyl}thiazolidine]: in the assay on contracted rat aorta (setting [1]), the EC50 worked out at 900 nM.
Regarding `O=C(O)C1CSC(c2cc(Cl)ccc2OCCO[N+](=O)[O-])N1` (centres unmarked) [Example XXV, 4-Carboxy-2-[5-chloro-2-(2-nitroxyethoxy)phenyl]thiazolidine], the EC50 with contracted rat aorta (setting [1]) worked out at 20 nM. In addition, the “Activity with regard to the lowering” value with arterial blood pressure (setting [2]) is “Active”.
`CC(C)(COc1ccccc1C1NC(C(=O)O)CS1)CO[N+](=O)[O-]` (centres unmarked) [Example XXX, 4-Carboxy-2-[2-(2,2-dimethyl-3-nitroxypropoxy)phenyl]thiazolidine]: the EC50 with contracted rat aorta (setting [1]) amounted to 102 nM. In the assay on arterial blood pressure (setting [2]), the “Activity with regard to the lowering” value is “Active”.
Turning to `O=C(O)C1CSC(c2ccccc2OCCCO[N+](=O)[O-])N1` (centres unmarked) [Example XXXII, 4-Carboxy-2-[2-(3-nitroxypropoxy)phenyl]thiazolidine], the EC50 in the assay on contracted rat aorta (setting [1]) was 37 nM.
The same measure, in the same setting: then `O=[N+]([O-])OCCOc1cccc(C2NCCS2)c1` (centres unmarked) [XIX, 2-[3-(2-Nitroxyethoxy)phenyl]thiazolidine×HCl], with 9.7 nM; and `COc1cc(C2NC(C(=O)O)CS2)cc(Br)c1OCCO[N+](=O)[O-]` (centres unmarked) [XXIII, 2-[3-Bromo-5-methoxy-4-(2-nitroxyethoxy)phenyl]-4-carboxythiazolidine], with 820 nM.
For the compound `CC1(C)SC(c2ccccc2OCCO[N+](=O)[O-])N[C@H]1C(=O)O` (some centres unmarked) [XXVI, 4-Carboxy-5,5-dimethyl-2-[(2-nitroxyethoxy)phenyl]thiazolidine], in the assay with contracted rat aorta (setting [1]), the EC50 was 57 nM. Also, in the assay on arterial blood pressure (setting [2]), the “Activity with regard to the lowering” value is “Active”.
In the same order, the values of `O=[N+]([O-])OCCOc1ccccc1C1NCCS1` (centres unmarked) [XXVII, 2-[(2-Nitroxyethoxy)phenyl]thiazolidine oxalate hydrate] are 6.7 nM and “Active”.
For `CCOC(=O)[C@@H]1CSC(c2ccccc2OCCO[N+](=O)[O-])N1` (some centres unmarked) [XXVIII, 4-Ethoxycarbonyl-2-[2-(2-nitroxyethoxy)phenyl]thiazolidine 4-toluenesulphonate] the same measures were 9.4 nM and “Active”.
`CC(C)(CO[N+](=O)[O-])C(=O)N1C(C(=O)O)CSC1c1ccccc1` (centres unmarked) [XXXIII, 4-Carboxyl-N-(2,2-dimethyl-3-nitroxypropionyl)-2-phenylthiazolidine]: in the assay with contracted rat aorta (setting [1]), the EC50 came out at 2770 nM.
On to `O=C(O)C1CSC(c2ccccc2OCCCCO[N+](=O)[O-])N1` (centres unmarked) [XXXIV, 4-Carboxy-2-[2-(4-nitroxybutoxy)phenyl]thiazolidine], for which the EC50 in the assay on contracted rat aorta (setting [1]) was 17 nM.
Take `CC(COc1ccccc1C1NC(C(=O)O)CS1)O[N+](=O)[O-]` (centres unmarked) [XXXVI, 4-Carboxy-2-[2-(2-nitroxypropoxy)phenyl]thiazolidine]: the EC50 in the assay with contracted rat aorta (setting [1]) was 48 nM. The “Activity with regard to the lowering” value with arterial blood pressure (setting [2]) is reported as “Active”.
